Experiment [1] deals with hERG potassium ion channel (Homo sapiens (Human), UniProt Q12809). Briefly: MK-499 binding. Particulars: more active isomer.
For experiment [2], the target named is T1, human SSTR3 (Homo sapiens (Human), UniProt P32745). The experiment in a line: SSTR3 functional antagonist assay (cAMP, FSK + SS-14, CHO cells). Conditions: 3.5 μM FSK + 100 nM SS-14; more active isomer. Format: cell-based. The procedure: The effects of compounds that bind to human and murine SSTR3 with various affinities on the functional activity of the receptor were assessed by measuring cAMP production in the presence of Forskolin (FSK) along or FSK plus SS-14 in SSTR3 expressing CHO cells. FSK acts to induce cAMP production in these cells by activating adenylate cyclases, whereas SS-14 suppresses cAMP production in the SSTR3 stable cells by binding to SSTR3 and the subsequent inhibition of adenylate cyclases via an alpha subunit of GTP-binding protein (Gαi).
T1 sequence (P32745 whole entry): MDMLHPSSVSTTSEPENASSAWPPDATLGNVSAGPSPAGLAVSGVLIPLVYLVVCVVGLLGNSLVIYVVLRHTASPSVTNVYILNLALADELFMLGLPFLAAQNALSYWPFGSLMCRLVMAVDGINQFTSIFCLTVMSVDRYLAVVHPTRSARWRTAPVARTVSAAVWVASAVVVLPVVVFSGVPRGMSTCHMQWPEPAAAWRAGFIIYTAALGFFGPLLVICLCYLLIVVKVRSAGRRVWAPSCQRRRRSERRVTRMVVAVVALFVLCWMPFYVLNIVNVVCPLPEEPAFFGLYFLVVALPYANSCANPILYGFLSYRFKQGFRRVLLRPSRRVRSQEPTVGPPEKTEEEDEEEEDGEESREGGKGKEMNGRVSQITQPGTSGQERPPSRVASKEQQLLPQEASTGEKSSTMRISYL
To measure the antagonism activity of the compounds, we pre-incubated the human or mouse SSTR3 stable CHO cells with the compounds for 15 rain, followed by a one-hour incubation of the cells with a mixture of 3.5 μM FSK+100 nM SS-14 (in the continuous presence of the compounds). The amount of cAMP produced during the incubation was also quantified with the Lance cAMP assay. The antagonism activity of each compound was reflected both by % Inhibition (its maximum ability to block the action of SS-14) and an EC50 value which is the concentration of the test compound required to suppress the effect of 100 nM SS-14 by 50%. The % Inhibition of each compound was calculated using the following formula: % Inhibition=[1−(unknown cAMP/FSK+SS-14 cAMP)]×100

For experiment [3], the target named is T1, human SSTR3. The experiment in a line: SSTR binding filtration assay (SSTR3). Conditions: (3-125I-Tyr11)-SRIF-14 radioligand, CHO-K1 membranes; more active isomer. The procedure: The receptor-ligand binding assays of all 5 subtype of SSTRs were performed with membranes isolated from Chinese hamster ovary (CHO)-K1 cells stably expressing the cloned human somatostatin receptors in 96-well format as previous reported. (Yang et al. PNAS 95:10836-10841, 1998, Birzin et al. Anal. Biochem. 307:159-166, 2002.) The stable cell lines for SSTR1-SSTR5 were developed by stably transfecting with DNA for all five SSTRs using Lipofectamine. Neomycin-resistant clones were selected and maintained in medium containing 400 μg/mL G418 (Rohrer et al. Science 282:737-740, 1998).
Binding assays were performed using (3-^125I-Tyr11)-SRIF-14 as the radioligand (used at 0.1 nM) and The Packard Unifilter assay plate. The assay buffer consisted of 50 mM TrisHCl (pH 7.8) with 1 mM EGTA, 5 mM MgCl2, leupeptin (10 μg/mL), pepstatin (10 μg/mL), bacitracin (200 μg/mL), and aprotinin (0.5 μg/mL). CHO-K1 cell membranes, radiolabeled somatostatin, and unlabeled test compounds were resuspended or diluted in this assay buffer. Unlabeled test compounds were examined over a range of concentrations from 0.01 nM to 10,000 nM. The Ki values for compounds were determined as described by Cheng and Prusoff Biochem Pharmacol. 22:3099-3108 (1973).

The target in experiment [4] is T1, human SSTR3. Briefly: SSTR3 binding Scintillation Proximity Assay (SPA). Particulars: 125I-SS14 radioligand, CHO-K1 membranes; more active isomer. The procedure: The receptor-ligand binding Scintillation Proximity Assay (SPA) (N. D. Cook. Drug Discovery Today 1 (1996), pp. 287-294) for SSTR3 was performed with membranes isolated from Chinese hamster ovary (CHO)-K1 cells stably expressing the cloned human somatostatin receptors. Binding assays were performed in 384 well format using ^125I-SS14 as the radioligand for SSTR3. The assay buffer consisted of 50 mM TrisHCl (pH 7.8) with 1 mM EGTA, 5 mM MgCl2, leupeptin (10 μg/mL), pepstatin (10 μg/mL), bacitracin (200 μg/mL), and aprotinin (0.5 μg/mL). CHO-K1 cell membranes were prebound to SPA beads and incubated with unlabelled test compounds and radiolabeled somatostatin in assay buffer. After 5 hours at room temperature, cpm/well was determined. Test compounds were examined in 10 point titrations over a range of concentrations from 0.00001 nM to 1200 nM. Percent inhibition was determined for each data point using binding in the presence of DMSO as the maximum achievable value. The results were plotted using 4 parameter fit and the inflection point reflecting 50% of the maximum inhibition was reported as the IC50.
Background: In a scintillation proximity assay essentially only radioactivity close to the scintillant gives light.

Our source for the IC50, EC50 and Ki values is US8754099B2, “Oxadiazole beta carboline derivatives as antidiabetic compounds” (Merck Sharp & Dohme Corp, priority 2010, dated 2014).

The IC50 is the concentration needed to halve the response being measured. The low end stands for inhibition by little substance, the high end for a need for much substance. As usually defined, the EC50 is the concentration at which the effect is half-maximal. As a reminder, the Ki is a measure of affinity in units of concentration, obtained from inhibition or displacement. Read a high Ki as a looser hold on the target.

Sequence of hERG potassium ion channel (Q12809 whole entry): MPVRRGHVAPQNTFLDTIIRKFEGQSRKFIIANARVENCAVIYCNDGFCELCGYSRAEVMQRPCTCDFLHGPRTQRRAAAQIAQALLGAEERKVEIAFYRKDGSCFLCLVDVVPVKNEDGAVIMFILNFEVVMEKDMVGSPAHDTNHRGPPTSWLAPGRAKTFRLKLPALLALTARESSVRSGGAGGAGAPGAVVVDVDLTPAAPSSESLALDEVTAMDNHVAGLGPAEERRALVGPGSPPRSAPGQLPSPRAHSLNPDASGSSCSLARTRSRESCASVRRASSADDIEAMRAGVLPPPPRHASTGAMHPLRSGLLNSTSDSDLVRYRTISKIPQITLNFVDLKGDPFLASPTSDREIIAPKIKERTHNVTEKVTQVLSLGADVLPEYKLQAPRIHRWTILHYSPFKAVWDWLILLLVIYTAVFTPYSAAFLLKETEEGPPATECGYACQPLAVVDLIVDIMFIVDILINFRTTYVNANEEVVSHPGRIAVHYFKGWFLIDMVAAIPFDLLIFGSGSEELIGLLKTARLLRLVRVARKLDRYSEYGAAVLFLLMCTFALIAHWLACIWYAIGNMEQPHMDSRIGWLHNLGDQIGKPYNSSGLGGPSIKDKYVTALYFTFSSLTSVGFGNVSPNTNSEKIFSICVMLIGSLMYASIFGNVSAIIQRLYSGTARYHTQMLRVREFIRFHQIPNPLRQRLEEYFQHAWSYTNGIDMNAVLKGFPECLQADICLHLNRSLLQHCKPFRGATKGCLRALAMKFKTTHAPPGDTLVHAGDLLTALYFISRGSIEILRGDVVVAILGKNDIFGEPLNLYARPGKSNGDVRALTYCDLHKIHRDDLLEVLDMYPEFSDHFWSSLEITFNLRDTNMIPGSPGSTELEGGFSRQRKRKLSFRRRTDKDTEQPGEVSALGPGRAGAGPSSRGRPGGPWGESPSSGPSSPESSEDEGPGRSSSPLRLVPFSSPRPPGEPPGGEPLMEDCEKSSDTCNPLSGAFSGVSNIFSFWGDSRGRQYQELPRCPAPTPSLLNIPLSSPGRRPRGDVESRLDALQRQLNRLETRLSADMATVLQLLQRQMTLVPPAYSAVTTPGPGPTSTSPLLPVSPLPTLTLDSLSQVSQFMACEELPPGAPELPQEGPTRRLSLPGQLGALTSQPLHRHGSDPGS

Consider `COCCOCC1(c2nnc(C)o2)N[C@@H](c2nc(-c3ccc(F)c(C)n3)c[nH]2)Cc2c1[nH]c1ccccc21` (stereo partly shown) [Example 12], for which the IC50 in experiment [1] amounted to 27700 nM. Besides, the EC50 at human SSTR3 [2] stood at 1 nM. The compound further displayed a Ki at human SSTR3 [3] of 0.4 nM.

Take `CCOCC1(c2nnc(C3(C)CCCO3)o2)N[C@@H](c2nc(-c3ccc(F)c(C)n3)c[nH]2)Cc2c1[nH]c1ccccc21` (stereo partly shown) [Example 11]: the IC50 in experiment [1] came to 19200 nM. In addition, at human SSTR3 [2], the EC50 stood at 0.7 nM. The Ki on human SSTR3 [3] was 0.5 nM.

In the case of `Cc1nnc(C2(C3CCCCO3)N[C@@H](c3nc(-c4ccc(F)c(C)n4)c[nH]3)Cc3c2[nH]c2ccccc32)o1` (stereo partly shown) [Example 21], the IC50 in experiment [1] was 14600 nM; on human SSTR3 [4] it was 1.7 nM. Moreover, on human SSTR3 [2], the EC50 stood at 3.1 nM.

In turn, `COC1CC(C2(c3nnc(C)o3)N[C@@H](c3nc(-c4ccc(F)c(C)n4)c[nH]3)Cc3c2[nH]c2ccccc32)C1` (stereo partly shown) [Example 17] had an IC50 in experiment [1] of 21600 nM. For the same compound, the concentration giving a half-maximal response (EC50) on human SSTR3 [2] stood at 1.7 nM. In addition, the Ki on human SSTR3 [3] was 1.8 nM.

In turn, `COC1CCC(C2(c3nnc(C)o3)NC(c3nc(-c4ccc(F)c(C)n4)c[nH]3)Cc3c2[nH]c2ccccc32)CC1` (stereo not shown) [Example 18] yielded an IC50 in experiment [1] of 17500 nM. Moreover, the concentration for a half-maximal effect (EC50) at human SSTR3 [2] was 0.6 nM. The same compound came in with a Ki on human SSTR3 [3] of 0.3 nM.

On to `COCCOCC1(c2nnc(C(C)(C)C)o2)N[C@@H](c2nc(-c3ccc(F)cn3)c[nH]2)Cc2c1[nH]c1ccccc21` (stereo partly shown) [Example 8], for which the IC50 in experiment [1] was determined as 19700 nM. The EC50 on human SSTR3 [2] was found to be 3.7 nM. In addition, affinity on human SSTR3 [3] was put at a Ki of 1.4 nM.

The compound `CCOCC1(c2nnc(CCOC)o2)N[C@@H](c2nc(-c3ccc(F)cn3)c[nH]2)Cc2c1[nH]c1ccccc21` (stereo partly shown) [Example 5] gave an IC50 in experiment [1] of 16500 nM. On human SSTR3 [2], the EC50 is 3.5 nM. This compound showed a Ki at human SSTR3 [3] of 2.7 nM.

In experiment [1], `CCOCC1(c2nnc(CCOC)o2)N[C@@H](c2nc(-c3ccc(F)c(C)n3)c[nH]2)Cc2c1[nH]c1ccccc21` (stereo partly shown) [Example 7] displayed an IC50 of 23200 nM. Also, on human SSTR3 [2], the EC50 amounted to 0.9 nM. In addition, affinity at human SSTR3 [3] was put at a Ki of 0.9 nM.

In experiment [1], `[2H]C([2H])([2H])COCC1(c2nnc(C)o2)N[C@@H](c2nc(-c3ccc(F)c(C)n3)c[nH]2)Cc2c1[nH]c1ccccc21` (stereo partly shown) [Example 16] came in with an IC50 of 22300 nM. The EC50 at human SSTR3 [2] was determined as 8.5 nM. On human SSTR3 [3], this compound displayed a Ki of 0.6 nM.

As for `CCOCC1(c2nnc(C(C)C)o2)N[C@@H](c2nc(-c3ccc(F)cn3)c[nH]2)Cc2c1[nH]c1ccccc21` (stereo partly shown) [Example 9], in experiment [1], the IC50 amounted to 20200 nM. Besides, the EC50 at human SSTR3 [2] was 5.1 nM. The compound further came in with an inhibition constant Ki on human SSTR3 [3] of 2.5 nM.

In experiment [1], `CCOCC1(c2nnc(C(C)(C)C)o2)N[C@@H](c2nc(-c3ccc(F)cn3)c[nH]2)Cc2c1[nH]c1ccccc21` (stereo partly shown) [Example 6] displayed an IC50 of 17900 nM. Also, the EC50 at human SSTR3 [2] was 2.5 nM. The same compound yielded a Ki on human SSTR3 [3] of 2.6 nM.

Take `CCOCC1(c2nnc(C(C)C)o2)N[C@@H](c2nc(-c3ccc(F)c(C)n3)c[nH]2)Cc2c1[nH]c1ccccc21` (stereo partly shown) [Example 14]: the IC50 in experiment [1] is 18600 nM. Moreover, the EC50 on human SSTR3 [2] was found to be 1.3 nM. The compound further came in with a Ki on human SSTR3 [3] of 0.4 nM.

`COCCOCC1(c2nnc(C3CCOCC3)o2)N[C@@H](c2nc(-c3ccc(F)cn3)c[nH]2)Cc2c1[nH]c1ccccc21` (stereo partly shown) [Example 10] returned an IC50 in experiment [1] of 23400 nM. Further, on human SSTR3 [2], the EC50 was 2.4 nM. Also, the Ki on human SSTR3 [3] was 2.7 nM.

Turning to `[2H]C([2H])([2H])OC1CC2C(C1)C2C1(c2nnc(C)o2)N[C@@H](c2nc(-c3ccc(F)c(C)n3)c[nH]2)Cc2c1[nH]c1ccccc21` (stereo partly shown) [Example 22], the results for the IC50 (in experiment [1]; on human SSTR3 [4]) were 22800 nM and 1.2 nM, respectively. For the same compound, the EC50 on human SSTR3 [2] came out at 1.57 nM.

`Cc1nc(-c2c[nH]c([C@H]3Cc4c([nH]c5ccccc45)C(c4nnc(C(C)C)o4)(C4CCOCC4)N3)n2)ccc1F` (stereo partly shown) [Example 19] registered an IC50 in experiment [1] of 16000 nM. At human SSTR3 [2], the EC50 worked out at 0.7 nM. The Ki on human SSTR3 [3] is 0.6 nM.

`COCCOCC1(c2nnc(C3CCOCC3)o2)N[C@@H](c2nc(-c3ccc(F)c(C)n3)c[nH]2)Cc2c1[nH]c1ccccc21` (stereo partly shown) [Example 13] returned an IC50 in experiment [1] of 19600 nM. Besides, on human SSTR3 [2], the EC50 was 0.5 nM. This compound displayed a Ki at human SSTR3 [3] of 0.5 nM.

Turning to `Cc1nnc(C2(C3CCCO3)N[C@@H](c3nc(-c4ccc(F)c(C)n4)c[nH]3)Cc3c2[nH]c2ccccc32)o1` (stereo partly shown) [Example 20], the half-inhibitory concentration (IC50) in experiment [1] turned out to be 17000 nM; on human SSTR3 [4], 4.6 nM. The EC50 at human SSTR3 [2] worked out at 4 nM. The compound further registered a Ki on human SSTR3 [3] of 0.9 nM.

In the case of `COCCOCC1(c2nnc(C(C)C)o2)N[C@@H](c2nc(-c3ccc(F)c(C)n3)c[nH]2)Cc2c1[nH]c1ccccc21` (stereo partly shown) [Example 15], the IC50 in experiment [1] amounted to 19200 nM. Further, the EC50 at human SSTR3 [2] worked out at 0.6 nM. In addition, affinity at human SSTR3 [3] was put at a Ki of 0.4 nM.
